Here are results for two compounds from ChEMBL document CHEMBL5543065, “ATP ion channel P2X7 receptor as a regulatory molecule in the progression of colorectal cancer” (Eur J Med Chem, 2023).

The structures appear in SMILES notation.

The test system of assay [1] is HCT-116. The experiment in a line: Antiproliferative activity against human HCT-116 cells assessed as reduction in cell viability incubated for 24 hrs by CCK-8 assay. The assay is classed as functional, cell-based. To be noted: HCT-116, 24 h. In general terms: Formazan colour is commonly taken as a measure of viable cells.
Assay [2] concerns HCT-116. Briefly: Antiproliferative activity against human HCT-116 cells assessed as reduction in cell growth incubated for 72 hrs by MTT assay. As to conditions: HCT-116, 72 h. The assay is classed as functional, cell-based.

For `O=C1c2ccccc2C(=O)c2c(-c3ccccc3F)noc21`, in assay [1], the half-inhibitory concentration (IC50) amounted to 0.35 µM.
Turning to `O=C(Nc1ccc(C(F)(F)F)cc1)Nc1nnc(Sc2cc(NCCCN3CCOCC3)ncn2)s1`, in assay [2], the IC50 amounted to 5.52 µM.

One may read the IC50 as the concentration that inhibits the measured activity by half.
